Measured values reported in EP4293034A1, “A NOVEL ACYLATED DERIVATE OF PHLORETIN AND ITS USE AS ANTIOXIDANT” (Consejo Superior de Investigaciones Científicas (CSIC), priority 2022, dated 2023).
Values after ≈ are worked out from the molar mass of the structure shown. Where two headings read alike, the source gives them in different places. Marks after values point to notes of the source that are not given here.

How the values were obtained:
[1] = (*) data from Gonzalez-Alfonso et al, 2021, cited from earlier work; for EC50: EC50 ± SD, read-out: ABTS assay EC50; for ABTS assay TEAC: TEAC ± SD
[2] = (*) data from Gonzalez-Alfonso et al, 2021, cited from earlier work; for EC50: EC50 ± SD, read-out: DPPH assay EC50; for DPPH assay TEAC: TEAC ± SD
[3] = water, 25 °C; (*) data from Gonzalez-Alfonso et al, 2021; cited from earlier work
[4] = previously reported, Gonzalez-Alfonso et al, 2021; cited from earlier work
[5] = In vitro percutaneous absorption on Franz static diffusion cells; format: in vitro ADME; conditions: pig skin model, 24 h exposure, Figure 5
Experimental: The study was carried out in vitro with pig biopsies placed on Franz static diffusion cells (3 mL, 1.86 cm^2 of exposed area, diameter: […], Lara-Spiral, Courtenon, France) in order to determine the distribution of active compound (API) at the different skin layers, after an exposure time of 24 hours. The pig skin, provided by the Department of Cardiology of the Hospital Clinic (Barcelona, Spain), is considered morphologically and functionally equivalent to human skin for percutaneous absorption studies. Ultra-pure water was employed as receptor fluid, and cells were placed in a thermostated water bath (32 °C) containing a magnetic stirring device to obtain the skin surface temperature at 32 ± 1 °C. The integrity of the skin samples was evaluated by measuring the transepidermal water loss (TEWL) with Tewameter TM300 (Courage & Khazaka, Cologne, Germany) considering correct TEWL values under 15 g m^-2 h^-1. […] The different samples to be analyzed (W, SC, E, D and FR) were extracted and/or diluted in methanol (Merck, Darmstadt, Germany). The phloretin, its corresponding monoglucoside and acylated monoglucoside concentrations were analyzed by HPLC, as previously described. […] The results are shown as mean values (expressed as µg/cm2) ± standard deviations. […]

Aqueous solubility = format: physicochemical; conditions: water, 25 °C, 72 h
Experimental: The compound was incubated at 25 °C in water (saturated conditions) during 3 days under orbital stirring (1000 rpm). Then, the sample was centrifuged. A volume of 200 µL of the supernatant solution was analysed by triplicate, in a 96-well plate, using a phloretin calibration curve in methanol (0-200 µg/mL). The absorbance was measured by UV spectrophotometry (Tecan Infinite M200) at 297 nm.

[6] = Antioxidant activity, ABTS assay; format: biochemical; conditions: n = 3
Experimental: (§1) The capacity of the synthesized ester to reduce 2,2-diphenyl-1-picrylhydrazyl (DPPH) and the radical cation 2,2-azino-bis(3-ethylbenzothiazoline-6-sulfonic acid) diammonium salt (ABTS^·+) was assayed. (R)-Trolox was employed as antioxidant reference. Standard solutions with a concentration between 0 and 1000 µM for DPPH assay, and between 0 and 500 µM for ABTS assay, were prepared.

[7] = Antioxidant activity, DPPH assay; format: biochemical; conditions: n = 3
Experimental: as §1

[8] = TEAC ± SD, calculated from EC50 of the acyl derivative and EC50 of (R)-Trolox

Row | Structure (SMILES) | EC50 [1] [µM] | ABTS assay TEAC [1] | EC50 [2] [µM] | DPPH assay TEAC [2] | Solubility [3] | skin absorption (in words) [4] | percutaneous absorption, increase versus phloretin and its α-glucoside ([5]; listed as acyl-glucoside of phloretin) | percutaneous absorption, increase versus phloretin and its α-glucoside ([5]; listed as acylglucoside of phloretin) [fold] | Solubility (Aqueous solubility) [µg/mL] | EC50 ([6]; EC50 ± SD) [µM] | ABTS assay TEAC [6, 8] | EC50 ([7]; EC50 ± SD) [µM] | DPPH assay TEAC [7, 8]
1 | O=C(CCc1ccc(O)cc1)c1c(O)cc(O[C@H]2O[C@H](CO)[C@@H](O)[C@H](O)[C@H]2O)cc1O [Phloretin 4'-O-α-D-(glucopyranoside), Phloretin 4'-O-α-D-Glucopyranoside] | 16.9 ± 0.5 | 0.64 ± 0.06 | 285 ± 20 | 8.1 ± 0.6 |  |  |  |  |  |  |  |  | 
2 | O=C(CCc1ccc(O)cc1)c1c(O)cc(O)cc1O [Phloretin, 2',4',6'-trihydroxy-3-(4-hydroxyphenyl)-propiophenone] | 11.7 ± 0.6 | 0.45 ± 0.04 | 217 ± 14 | 6.2 ± 0.4 | 23.2 ± 0.3* mg/L | the same absorption pattern, without significant differences |  |  |  |  |  |  | 
3 | CCCCCCCCCCCC(=O)OC[C@H]1O[C@H](Oc2cc(O)c(C(=O)CCc3ccc(O)cc3)c(O)c2)[C@H](O)[C@@H](O)[C@@H]1O [phloretin 4'-O-(6-O-lauroyl)-α-D-glucopyranoside] |  |  |  |  |  |  | approx. 3 fold | 3 | 6.0 ± 0.2 (≈ 9.7 µM) | 14.7 ± 0.7 | 0.47 ± 0.04 | 439 ± 13 | 11.4 ± 0.8
